Test results published in US20210330611A1, “THERAPY FOR NEUROLOGICAL DISEASES/DISORDERS” (priority 2020, published 2021).
pIC50: −log10 of the molar value. Where two headings read alike, the source gives them in different places. Where a SMILES comes first, the peptide text is derived from it. Bridges are numbered along the chain shown (N, C = ends). [ ]: non-standard residue; d: D form. The star is where a group is joined. Ileψ(thiazoline)Cys = CC[C@H](C)[C@H](N)C1=N[C@H](C(=O)*)CS1; dOrn = NCCC[C@@H](N)C(=O)O

Assays:
[1] = in vitro; settings: rat
[2] = in vitro; settings: rat, Cell Toxicity IC50 (uM) [cFib assay]
[3] = test system: LPS-induced microglia activation; test: Image-based assay of LPS-induced microglia activation (HTS and dose response); format: cell-based, rat; settings: Rattus norvegicus, Microglia; for pIC50: read-out: LPS IC50; for inhibition at 10 µM: primary microglia HTS, LPS stimulation, read-out: LPS % inhibition; for IC50: read-out: LPS IC50 (uM) (Suppl. Table 7)
[4] = test system: primary rat microglia; settings: rat
[5] = test system: primary rat microglia; test: Cell toxicity (dead cells, size <150 μm2) in LPS assay; settings: for LPS % cell toxicity: primary microglia HTS, LPS stimulation, decreased size (<150 μm^2) as marker of toxicity; for IC50: read-out: Cell Toxicity IC50 (uM) [LPS assay], LPS assay
[6] = test system: fibrin- and LPS-induced microglia activation; test: cells; format: cell-based, rat; settings: for inhibition at 10 µM: Rattus norvegicus
[7] = test system: fibrin-induced microglia activation; test: Image-based assay of fibrin-induced microglia activation (HTS and dose response); format: cell-based, rat; settings: for pIC50 / IC50 / inhibition at 10 µM: Rattus norvegicus, Microglia; for pIC50: read-out: Fibrin IC50; for IC50: read-out: Fibrin IC50 (uM) (Suppl. Table 7); for inhibition at 10 µM: primary microglia HTS, fibrin stimulation, read-out: Fibrin % inhibition
[8] = test system: primary rat microglia; test: Cell toxicity (dead cells, size <150 μm2) in coated fibrin (cFib) assay; settings: primary microglia HTS;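 as to Fibrin % cell toxicity: share of dead cells sized under 150 µm2 at 10 µM in fibrin-stimulated microglia HTS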
[9] = test system: primary rat microglia; settings: rat; remark: listed apart in the source
[10] = 48 h, Table 1, dose response 0.001-20 μM, triplicates, primary rat microglia, 48 h
[11] = 48 h, increased cell size (>800 μm^2) as marker of activation
[12] = LPS-induced microglia activation, dose response
[13] = dose response, LPS-induced microglia activation
[14] = HTS of 1907 compounds, quadrant by fibrin and LPS inhibition
[15] = Microglia, HTS hit classification, read-out: Hit
[16] = hit classification in microglia HTS, read-out: Cherry-picked Hit (Suppl. Table 7)
[17] = quadrant by fibrin and LPS inhibition in HTS of 1907 compounds
[18] = dose response, fibrin-induced microglia activation
[19] = fibrin-induced microglia activation, dose response
[20] = increased cell size (>800 μm^2) as marker of activation
[21] = fibrin stimulation, decreased size (<150 μm^2) as marker of toxicity
[22] = classification by fibrin and LPS inhibition, HTS at 10 μM

Structure (SMILES) | pIC50 [1] | IC50 ([2]; cFib assay) [µM] | pIC50 [3, 10] | inhibition at 10 µM [3, 11] [%] | IC50 [3, 12] [µM] | pIC50 [3, 13] | inhibition at 10 µM ([3]; compounds at 10 μM) [%] | LPS % cell toxicity [4] [%] | LPS % cell toxicity [5] [%] | Quadrant (FIG. 5b) [6, 14] | inhibition at 10 µM [6, 15] [%] | inhibition at 10 µM [6, 16] [%] | Quadrant (FIG. 5b) ([6]; Table 1, screen at 10 μM) | Quadrant (FIG. 5b) [6, 17] | pIC50 [7, 10] | pIC50 [7, 18] | IC50 [7, 19] [µM] | inhibition at 10 µM ([7]; compounds at 10 μM) [%] | inhibition at 10 µM [7, 20] [%] | Fibrin % cell toxicity [8, 21] [%] | other results
CC[C@H](C)[C@H](N)C1=N[C@H](C(=O)N[C@@H](CC(C)C)C(=O)N[C@H](CCC(=O)O)C(=O)N[C@H](C(=O)N[C@H]2CCCCNC(=O)[C@H](CC(N)=O)NC(=O)[C@@H](CC(=O)O)NC(=O)[C@H](Cc3cnc[nH]3)NC(=O)[C@@H](Cc3ccccc3)NC(=O)[C@H]([C@@H](C)CC)NC(=O)[C@@H](CCCN)NC2=O)[C@@H](C)CC)CS1 [Bacitracin, reference compound] ({Ileψ(thiazoline)Cys}-L[dE]IK[dOrn]I[dF]H[dD]N; lactam 4-C) | < 4.70 | > 20 | < 4.70 | 21 | > 20 | < 4.70 | 6 | 1 | 0 | Q3 | > 50 | > 50 | Q3 | Q3 | < 4.70 | < 4.70 | > 20 | -7 | 82 | 1 | Quadrant (FIG. 5b) ([6]; quadrant by fibrin and LPS inhibition, HTS at 10 μM): Q4; Fibrin % cell toxicity ([8]; fibrin assay, dead cells (size <150 μm2)): 0%
CC(=O)OCC(=O)[C@@]1(OC(C)=O)[C@@H](C)C[C@H]2[C@@H]3C[C@H](F)C4=CC(=O)C=C[C@]4(C)[C@@]3(F)[C@@H](O)C[C@@]21C [Diflorasone diacetate, reference compound] | < 4.70 | > 20 | < 4.70 | 39 | > 20 | < 4.70 | 31 | 0 | 1 | Q3 | > 50 |  | Q3 | Q3 | 8.00 | 8.00 | 0.01 | 42 | 76 | 1 | IC50 ([2]; Table 3): > 20 µM; IC50 ([2]; cFib assay, Table 6): > 20 µM; IC50 ([3]; Table 3): > 20 µM; IC50 ([3]; Table 6): > 20 µM; IC50 [5]: > 20 µM; IC50 ([5]; Table 6): > 20 µM; inhibition at 10 µM ([6]; Microglia, Table 3, read-out: Cherry-picked Hit (Suppl. Table 7)): > 50%; Quadrant (FIG. 5b) ([6]; Table 3, screen at 10 μM): Q3; Quadrant (FIG. 5b) [6, 22]: Q4; Quadrant (FIG. 5b) ([6]; microglia HTS, Table 6): Q3; Fibrin Selectivity [7]: 2188; Fibrin Selectivity (LOG10) [7]: 3.34; IC50 ([7]; Table 3): 0.01 µM; IC50 ([7]; Table 6): 0.01 µM; Fibrin Selectivity (LOG10) ([7]; fibrin vs LPS, LOG10, Table 6): 3.34; Fibrin Selectivity ([7]; fibrin vs LPS, Table 6): 2188; Fibrin % cell toxicity ([8]; fibrin assay, dead cells (size <150 μm2), compounds at 10 μM): 1%
C=C(CC)C(=O)c1ccc(OCC(=O)O)c(Cl)c1Cl [Ethacrynic acid, reference compound] | < 4.70 | > 20 | < 4.70 | 17 | > 20 | < 4.70 |  | 1 |  | Q3 | > 50 | > 50 | Q3 | Q3 | < 4.70 | < 4.70 | > 20 |  | 57 |  | Fibrin % cell toxicity [9]: 2%
C#C[C@]1(O)CC[C@H]2[C@@H]3CCc4cc(O)ccc4[C@H]3CC[C@@]21C [Ethinyl estradiol, reference compound] | < 4.70 |  | < 4.70 | 37 | > 20 | < 4.70 | 5 |  |  | Q3 | > 50 | > 50 | Q3 | Q3 | < 4.70 | < 4.70 | > 20 | 9 | 58 |  | IC50 [2]: > 20 µM; Quadrant (FIG. 5b) [6, 22]: Q4; Fibrin % cell toxicity [9]: 1%
